Series [1] can be described thus: in vitro. The following applies: mouse, dividing ScN2a-cl3 cells.
A short description of series [2]: cells. Type of series: cell-based. Particulars: Mus musculus, N2a-cl3, 120 h.
The nature of series [3]: Inhibition of RML prion protein infected in mouse dividing ScN2a-cl3 cells expressing full length mouse PrP assessed as reduction of PrPsc level after 5 days by Western blotting analysis. It is filed as cell-based. Particulars: N2a-cl3, 120 h. (In western blotting, separated proteins are transferred to a membrane and probed.)
Series [4] deals with N2a-cl3. Description: Inhibition of RML prion protein infected in mouse stationary-phase ScN2a-cl3 cells expressing full length mouse PrP assessed as reduction of PrPsc level at 10 uM after 5 days by ELISA. It is filed as cell-based.
The subject of series [5] is N2a-cl3. The series is described as follows: Inhibition of RML prion protein infected in mouse dividing ScN2a-cl3 cells expressing full length mouse PrP assessed as reduction of PrPsc level at 10 uM after 5 days by ELISA. Type of series: cell-based. (In general: An ELISA detects its analyte on a solid surface through an enzyme-linked reagent.)

Turning to `COc1ccc(-c2ccc3c(N)c(C(=O)Nc4ccc(OC)c(OC)c4)sc3n2)cc1`, the CC50 at 120 h in series [1] was greater than 10 µM. Besides, the EC50 in series [2] is greater than 10 µM.

Regarding `COc1ccc(-c2nc3cc(NC(=O)c4ccc(OCc5ccccc5)cc4)ccc3o2)cc1`, the EC50 came out at 2.57 µM in series [3] and 0.07 µM in series [2].

`Nc1c(C(=O)Nc2ccc3c(c2)OCCO3)sc2nc(-c3cccs3)ccc12` came in with a CC50 at 120 h in series [1] greater than 10 µM. In series [2], this molecule showed an EC50 of 0.42 µM.

Take `OCCNCc1cc(Br)ccc1OCc1ccc(Cl)cc1Cl`: the EC50 came out at 1.99 µM in series [3] and 4.3 µM in series [2].

In the case of `COc1ccc(-c2ccc3c(N)c(C(=O)Nc4ccc(SC)cc4)sc3n2)cc1`, the CC50 at 120 h in series [1] is greater than 10 µM. In addition, in series [2], a half-maximal effect (EC50) was put at 0.29 µM.

On to `CC(=O)c1ccc(N2CCN(CC(C)CCC=C(C)C)CC2)cc1` (centres undefined), for which the inhibition is 55% in series [4] and 78% in series [5].

As to `Cc1ccc2[nH]c3c(c2c1)CCCC3NCC12CC3CC(CC(C3)C1)C2` (centres undefined), the inhibition worked out at 53% in series [4] and 98% in series [5].

For `CC(=O)c1ccc(N2CCN(Cc3ccccc3Cl)CC2)cc1`, the inhibition in series [4] turned out to be 41%; in series [5], 86%.

Regarding `CCc1ccc(-c2cn3ccccc3n2)cc1`, the EC50 in series [3] came out at 4.72 µM; in series [2], 9.16 µM.

On to `O=C(Nc1ccc(Cl)cc1)Nc1ccc(C(F)(F)F)cc1Cl`, for which the results for the inhibition in series [4] and in series [5] were 63% and 17%, respectively.

`CC(=O)c1ccc2c(c1)N(CCCN(C)C)c1ccccc1S2` [ACEPROMAZINE] gave a cytotoxic concentration (CC50) at 120 h in series [1] greater than 10 µM. In series [2], this molecule yielded an EC50 of 6.93 µM.

With `O=C(Nc1ccc(Br)cc1)Nc1cc(Cl)cc(Cl)c1`, the inhibition was found to be 51% in series [4] and 91% in series [5].

In the case of `CC(=O)c1ccc(N2CCN(Cc3ccc(F)cc3F)CC2)cc1`, the inhibition stood at 30% in series [4] and 85% in series [5].

`CCOc1ccc(C(=O)Nc2ccc3oc(-c4ccc(OC)cc4)nc3c2)cc1`: the 50% effective concentration (EC50) in series [3] was 0.13 µM; in series [2] it was 0.06 µM.

Molecule `COc1ccc(-c2ccc3c(N)c(C(=O)Nc4cc(OC)c(OC)c(OC)c4)sc3n2)cc1` showed a half-maximal cytotoxic concentration (CC50) at 120 h in series [1] greater than 10 µM. This molecule also came in with an EC50 in series [2] of 0.42 µM.

Regarding `COc1cc(CN2CCN(c3cccc(C)c3C)CC2)cc(Br)c1O`, the inhibition in series [4] was determined as 48%; in series [5], 22%.

On to `Cn1c(=N)n(CC(=O)c2ccc(Cl)cc2)c2ccccc21`, for which the concentration for a half-maximal effect (EC50) in series [3] was 4.97 µM; in series [2], 7.32 µM.

`CCN1CCN(c2ccc(Nc3ccnc4cc5ccccc5cc34)cc2)CC1`: the figures for the inhibition in series [4] and in series [5] were 51% and 76%, respectively.

For the molecule `Cn1c(=N)n(CC(=O)c2ccc(Br)cc2)c2ccccc21`, the EC50 in series [3] was found to be 1.45 µM; in series [2], 2.58 µM.

With `COc1cc(CNCCO)cc(Br)c1OCc1ccccc1Cl`, the EC50 in series [3] was 2.74 µM; in series [2] it was 4.83 µM.

Consider `O=C(Nc1ccc(Cl)cc1)Nc1ccc(Cl)c(F)c1`, for which the inhibition in series [4] amounted to 66%; in series [5], 25%.

Turning to `CN(C)CCNc1nc(-c2ccc(Cl)cc2)nc2ccccc12`, the EC50 in series [3] turned out to be 2.01 µM; in series [2] it was 2.65 µM.

As for `COc1ccc(CN2CCN(c3ccc(C(C)=O)cc3)CC2)c(C)c1C`, the inhibition in series [4] came to 41%; in series [5], 95%.

On to `CC(=O)c1ccc(N2CCN(Cc3ccccc3)CC2)cc1`, for which the results for the EC50 in series [3] and in series [2] were 0.62 µM and 0.71 µM, respectively.

Turning to `N#Cc1ccc(/C=C/c2ccc(F)cc2)cc1`, the EC50 in series [3] was determined as 0.53 µM; in series [2], 1.52 µM.

Take `COc1cc(N)c(-c2ccc3cc(OC)c(OC)cc3n2)cc1OC`: the EC50 in series [3] came out at 1.83 µM; in series [2] it was 2.56 µM.

Regarding `COc1ccccc1OCCNCC(O)COc1cccc2[nH]c3ccccc3c12` (centres undefined) [CARVEDILOL], in series [2], a half-maximal effect (EC50) was put at 2.28 µM.

Regarding `COc1cccc(Nc2nc(N)c3ccccc3n2)c1`, the EC50 in series [3] stood at 5.99 µM; in series [2], 4.02 µM.

Turning to `COc1ccc(-c2cc(-c3ccc(C)cc3O)[nH]n2)cc1`, the EC50 in series [3] was found to be 0.12 µM; in series [2], 0.26 µM.

Consider `COc1ccc(C(=O)Nc2ccc(-c3csc(C)n3)cc2)cc1`, for which the EC50 came to 0.16 µM in series [3] and 0.4 µM in series [2].

Turning to `O=C(Nc1ccccc1)Nc1ccc(F)c(Cl)c1`, the values for the inhibition in series [4] and in series [5] were 56% and 87%, respectively.

Regarding `Oc1ccc(/C=C/c2cc(O)cc(O)c2)cc1` [RESVERATROL], the figures for the concentration for a half-maximal effect (EC50) in series [3] and in series [2] were 0.58 µM and 3.06 µM, respectively.

`c1ccc2cc(-c3cn4ccsc4n3)ccc2c1`: the EC50 stood at 2.49 µM in series [3] and 6.02 µM in series [2].

On to `CCc1ccc(-c2cn3cc(C)sc3n2)cc1`, for which the EC50 in series [3] was 0.52 µM; in series [2] it was 1.78 µM.

Regarding `CC(=O)c1ccc(N2CCN(Cc3cccnc3)CC2)cc1`, in series [3], the EC50 worked out at 0.89 µM.

For the molecule `O=C(Nc1nc(-c2ccc3ccccc3c2)cs1)C1CC1`, the EC50 came to 0.57 µM in series [3] and 0.99 µM in series [2].

Turning to `CC(=O)c1ccc(N2CCN(Cc3cccc(Cl)c3)CC2)cc1`, the inhibition in series [4] was determined as 31%; in series [5] it was 84%.

For the molecule `O=C(Nc1ccc(F)c(Cl)c1)Nc1ccc(Cl)c(Cl)c1`, the inhibition in series [4] is 61%; in series [5], 92%.

`CC(=O)c1ccc(N2CCN(Cc3c(C)n(C)n(-c4ccccc4)c3=O)CC2)cc1`: the inhibition in series [4] was 35%; in series [5] it was 64%.

In the case of `Cc1ccc2[nH]c3c(c2c1)CCCC3NC1CCCCC1` (centres undefined), the inhibition in series [4] amounted to 48%; in series [5], 27%.

Consider `Cc1[nH]c2ccccc2c1-c1csc(-c2cccnc2)n1`, for which the EC50 in series [3] was determined as 1.7 µM; in series [2], 3.13 µM.

For `Cc1ccc2c(c1)c1c(n2CC(O)CO)C(=O)CCC1` (centres undefined), the inhibition in series [4] is 39%; in series [5], 14%.

Regarding `c1cncc(-c2nc(-c3c[nH]c4ccccc34)cs2)c1`, the EC50 came out at 0.83 µM in series [3] and 0.27 µM in series [2].

In the case of `COc1ccc2[nH]c3c(OC)ncnc3c2c1`, the inhibition was determined as 37% in series [4] and 81% in series [5].

Turning to `Clc1ccc(N2CCN(C3CCSC3)CC2)cc1` (centres undefined), the results for the inhibition in series [4] and in series [5] were 51% and 42%, respectively.

Regarding `CC(=O)c1ccc(N2CCN(Cc3cccc(Br)c3)CC2)cc1`, the inhibition in series [4] worked out at 39%; in series [5], 67%.

For `CC(=O)c1ccc(N2CCN(Cc3ccc(Br)s3)CC2)cc1`, the inhibition in series [4] was found to be 34%; in series [5], 97%.

For the molecule `COc1ccc(-c2cc(-c3ccc(OC)cc3O)[nH]n2)cc1`, the EC50 in series [3] came out at 0.1 µM; in series [2], 0.07 µM.

As to `CNCCc1c(-c2ccccc2)n(-c2ccccc2)c2ccccc12`, the inhibition is 46% in series [4] and 81% in series [5].

Regarding `CCOc1ccc(NC(=O)c2cc3ccccc3cc2O)cc1`, the results for the EC50 in series [3] and in series [2] were 0.04 µM and 0.13 µM, respectively.

Turning to `O=C(Nc1ccc(Cl)c(Cl)c1)NC(CC(=O)c1ccc([N+](=O)[O-])cc1)C(Cl)(Cl)Cl` (centres undefined), the inhibition in series [4] turned out to be 61%; in series [5], 83%.

As for `O=C(Nc1nc(-c2ccc(-c3ccccc3)cc2)cs1)C1CC1`, the EC50 in series [3] amounted to 0.19 µM; in series [2] it was 0.25 µM.

Consider `CCc1ccc(-c2cn3cc(C)ccc3n2)cc1`, for which the results for the EC50 in series [3] and in series [2] were 0.29 µM and 0.71 µM, respectively.

In general, CC50 refers to the concentration at which the toxic effect on the cells reaches its halfway point. The low end stands for harm at low concentration, the high end for better tolerance by the cells. One may read the EC50 as the midpoint of the concentration-response curve. In general, inhibition refers to the share of the control response that was lost under treatment.

For the origin of these results see ChEMBL document CHEMBL3091297, “Antiprion compounds that reduce PrP(Sc) levels in dividing and stationary-phase cells” (Bioorg Med Chem, 2013).
